Assays:
[1] = system: MDA-MB-231 cells; settings: cited from earlier work
[2] = system: eIF4F complex in 231S cells; assay: m7GTP pulldown assay (eIF4F complex); assay type: cell-based, human
Method: 231S cells were serum starved for 1 h and cells were stimulated (and prepared) as described in the co-immunoprecipitation section. 100 nM AMD3465 (CXCR4 antagonist, Sigma-Aldrich, St. Louis, Mo., Cat. No. SML1433-5MG) was incubated 30 min prior to stimulation. 1 mg of total protein lysate in 1 mL of Co-IP buffer was incubated with 25 μL of m7-GTP agarose beads overnight at 4° C. (Jena Biosciences, Jena, Germany, Cat. No. AC-155S). Following incubation, beads were washed with Co-IP buffer. Protein was eluted and analyzed by SDS-PAGE and Western blotting.

[3] = system: LASP1-eIF4A interaction in 231S cells; assay: Proximity ligation assay (PLA) of LASP1-eIF4A interaction; assay type: cell-based, human
Method: The Duolink In Situ Orange Fluorescent kit (Sigma/Aldrich, St. Louis, Mo., Cat. No. DUO92102-1KT) was employed to detect the endogenous interaction between LASP1 and eIF4A in situ in 231S cells. The PLA was performed according to the manufacturer's instructions using a rabbit eIF4A1 antibody (Cohesion Biosciences, London, Purley, Cat. No. CQA1180) and a mouse LASP1 antibody (Biolegend, San Diego, Calif., Cat. No. 909301). The single Ab control condition represents the PLA reaction with only the LASP1 antibody. In addition, cells were stained with phalloidin (Life Technologies, Carlsbad, Calif., Cat. No. A12379) and nuclei with DRAQ5 (Thermo Scientific, Rockford, Ill., Cat No. 62251). Cells were stimulated and inhibited as described. Moreover, cells were fixed, stained, and permeabilized with standard methods. The images were acquired by two-photon confocal microscopy and processed with Leica Application Suite X software (Leica, Wetzlar, Germany). Quantification of the interaction dots was performed using ImageJ.

[4] = system: CXCR4 signaling in 231S cells; assay: Western blotting of phosphorylation of eIF4B, PDCD4, 4E-BP1 after CXCR4 activation; assay type: cell-based, human
Method: (§1) Cell lysates were prepared and quantified as described. Western blots were incubated with the following 1° Abs: Cyclin D1 (Cell Signaling Technology, Danvers, Mass., Cat. No. 2922), eIF4A C32B4 (Cell Signaling Technology, Danvers, Mass., Cat. No. 2013), eIF4B 1F5 (Cell Signaling Technology, Danvers, Mass., Cat. No. 13088), p-eIF4B S422 (Thermo Scientific, Rockford, Ill., Cat No. PA5-38362), eIF4E C46H6 (Cell Signaling Technology, Danvers, Mass., Cat. No. 2067), eIF4G C45A4 (Cell Signaling Technology, Danvers, Mass., Cat. No. 2469), GST 26H1 (Cell Signaling Technology, Danvers, Mass., Cat. No. 2624), LASP1 8C6 (Biolegend, San Diego, Calif., Cat. No. 909301), MDM2 SMP14 (Santa Cruz Biotechnology, Dallas, Tex., Cat. No. sc-965), PDCD4 D29C6 (Cell Signaling Technology, Danvers, Mass., Cat. No. 9535), p-PDCD4 S67 (Sigma-Aldrich, St. Louis, Mo., Cat. No. P0072), ROCK1 C8F7 (Cell Signaling Technology, Danvers, Mass., Cat. No. 4035), survivin 71G4B7 (Cell Signaling Technology, Danvers, Mass., Cat. No. 2808), 4E-BP1 53H11 (Cell Signaling Technology, Danvers, Mass., Cat. No. 9644), p-4E-BP1 Thr70 (Cell Signaling Technology, Danvers, Mass., Cat. No. 9455), and β-tubulin D66 (Sigma/Aldrich, St. Louis, Mo., Cat. No. T0198). Following primary incubation, Western blots were incubated with Goat anti-Mouse IgG (H+L) Superclonal™ Secondary Ab conjugated to HRP (Thermo Scientific, Rockford, Ill., Cat No. A28177) or Goat anti-Rabbit IgG (H+L) Superclonal™ Secondary Ab conjugated to HRP (Thermo Scientific, Rockford, Ill., Cat No. A27036). Finally, blots were developed with Amersham™ ECL™ Prime Western Blotting Detection Reagent (GE Healthcare Life Sciences, Pittsburgh, Pa., Cat. No. RPN2232) and HyBlot ES™ Autoradiography Film (Denville Scientific, Swedesboro, N.J., Cat. No. E3212). Densitometry of the Western blots was performed using ImageJ. Calculation of fold change is given in the figure legend for each experiment.

[5] = system: LASP1-eIF4A/eIF4B association in 231S cells; assay: Co-immunoprecipitation of LASP1 with eIF4A/eIF4B; assay type: cell-based, human
Method: Subconfluent 231S cells were serum-starved for 1 hour and stimulated with 10-20 nM CXCL12 (PeptroTech, Rocky Hill, N.J., Cat. No. 300-28A) over different time points. […] Total protein in the clarified lysate was quantified using a Bradford protein assay (Bio-Rad, Hercules, Calif., Cat. No. 5000006). 1 mg of total protein lysate was employed in all immunoprecipitation reactions. eIF4B was immunoprecipitated by using 2 μg of eIF4B antibody (Cell Signaling Technology, Danvers, Mass., Cat. No. 13088). Mouse (G3A1) mAb IgG1 Isotype Control (Cell Signaling Technology, Danvers, Mass., Cat. No. 5415) served as the mock control. Next, eIF4A was immunoprecipitated using 2 μg of eIF4A1 antibody (Cohesion Biosciences, London, Purley, Cat. No. CQA1180). His-Tag (D3L10) XP® Rabbit mAb (Cell Signaling Technology, Danvers, Mass., Cat. No. 12698) was employed for the mock condition. Finally, in the reciprocal Co-IP, LASP1 was immunoprecipitated by using 2 μg LASP1 antibody (Biolegend, San Diego, Calif., Cat. No. 909301). As in the eIF4B Co-IP, mouse (G3A1) IgG1 isotype mAb was employed as the mock control. […] Proteins of interest were analyzed by sodium dodecyl sulfate-polyacrylamide gel electrophoresis (SDS-PAGE) and Western blotting.

[6] = system: 231S LASP1 NS cells; assay: Western blotting of eIF4A-dependent genes after CXCL12 stimulation; assay type: cell-based, human; settings: control-silenced (LASP1 NS) 231S cells, 10-20 nM CXCL12
Method: as §1, with “Following primary incubation, Western blots were incubated with Goat anti-Mouse IgG (H+L) Superclonal™ Secondary Ab conjugated to HRP (Thermo Scientific, Rockford, Ill., Cat No. A28177) or Goat anti-Rabbit IgG (H+L) Superclonal™ Secondary Ab conjugated to HRP (Thermo Scientific, Rockford, Ill., Cat No. A27036). Finally, blots were developed with Amersham™ ECL™ Prime Western Blotting Detection Reagent (GE Healthcare Life Sciences, Pittsburgh, Pa., Cat. No. RPN2232) and HyBlot ES™ Autoradiography Film (Denville Scientific, Swedesboro, N.J., Cat. No. E3212). Densitometry of the Western blots was performed using ImageJ. Calculation of fold change is given in the figure legend for each experiment.” left out

| Compound | IC50 [1] [nM] | eIF4G-eIF4E interaction (eIF4G recruitment) ([2]; 20 nM CXCL12, 20 min) [fold] | association of endogenous LASP1 with eIF4E ([2]; 20 nM CXCL12, peak at 5 min) [fold] | eIF4G-eIF4E interaction (eIF4G recruitment) ([2]; 20 nM CXCL12, peak at 5 min) [fold] | stimulation of the interaction between LASP1 and eIF4A ([3]; CXCL12 5 min vs unstimulated) [fold] | LASP1-eIF4A interaction dots (interactions/cell) ([3]; CXCL12 incubation for 5 min (20 nM), unstimulated 11.6±6.5) [dots] | phosphorylation of PDCD4 (pS67) ([4]; CXCL12, 5 min) [fold] | phosphorylation of PDCD4 (pS67) ([4]; CXCL12, peak at 10 min) [fold] | increase in association of LASP1 with eIF4B (reciprocal Co-IP) ([5]; 20 nM CXCL12, 0 min set to 1) [fold] | association of endogenous LASP1 and eIF4A1 (reciprocal Co-IP) ([5]; 20 nM CXCL12, 5 min, 0 min set to 1) [fold] | protein levels of CCND1, BIRC5, Mdm2, and ROCK1 [6] |
| --- | --- | --- | --- | --- | --- | --- | --- | --- | --- | --- | --- |
| COC(=O)[C@H]1[C@@H](O)[C@@]2(O)c3c(OC)cc(O[C@@H]4O[C@@H]([C@H](O)CO)CO[C@H]4OC)cc3O[C@@]2(c2ccc(OC)cc2)[C@@H]1c1ccccc1 [Silvestrol] | 60 | – | – | – | – | – | – | – | – | – | – |
| CXCL12: ligand for CXCR4 (PeproTech), used to stimulate cells | – | 2.2 | 2.2 | 4.4 | 3 | 118±58.3 | 3.3 | 3.9 | 7.5 | 19.1 | considerable increases |

Reference: patent US12653805B2, “Targeting LASP1, eIF4A1, eIF4B and CXC4 with modulators and combinations thereof for cancer therapy” (The University of Toledo, priority 2019, dated 2026)
